For data set [1] the following is noted: cited from earlier work. As to the method: FIG 4 Probability of pharmacokinetic/pharmacodynamic target attainment for 400 mg rezafungin against Candida species using CLSI methodology. f, free. TEXT PRINTED IN THE PICTURE: no label printed: Candida albicans − fAUC/MIC Targets: CLSI Target: Stasis 20.5; Candida albicans − fAUC/MIC Targets: CLSI Target: 1-Log Drop in CFU 37.2; Candida glabrata − fAUC/MIC Targets: CLSI Target: Stasis 0.5; Candida glabrata − fAUC/MIC Targets: CLSI Target: 1-Log Drop in CFU 2.94; Candida parapsilosis − fAUC/MIC Targets: CLSI Target: Stasis 18.2; Candida auris − fAUC/MIC Targets: CLSI Target: Stasis 12.1; Can ... || It is noted that the target attainment (TA) methodology uses the simulated fAUC0–168h/MIC ratios; therefore, the value of plasma protein binding (PPB) influences this analysis. The free fraction of rezafungin used in the analysis was 2.6%, obtained from measuring PPB in plasma from healthy subjects. […] While there are still questions in the scientific community about how to verify information from the nonclinical model to support PK/PD-b ... || Using each simulated patient’s Bayesian PK parameters and dose amounts, simulations were performed to obtain plasma concentration profiles. […] For the purposes of target attainment analyses, AUC0–168h after the first dose was used (day 1). […]

The nature of data set [2]: Population pharmacokinetic model of rezafungin (three-compartment, NONMEM) from plasma concentrations of Phase 1, 2 and 3 studies. In kind it is in vivo, human. The method, then:
Data from single- and multiple-dose studies in healthy volunteers and patients, with doses ranging from 50 to 1,400 mg, were included in the PK analysis. All doses of rezafungin were administered via IV infusion. The PK data set consisted of a total of 2,512 rezafungin concentration records from 277 subjects, of which five records were identified as below the lower limit of quantitation postdose and five other records were identified as above 50 µg/mL, which was the upper limit of quantitation. Those records together represent less than 0.5% of the observed concentrations and were excluded from the analysis.
Starting from the previously developed four-compartment PK model ([13]), structurally simpler two- and three-compartment models with IIV in various parameters were developed and compared. During the initial modeling exercise, eight additional records were identified as outliers using conditional weighted residuals greater than 5 or smaller than −5 as a criterion and were excluded from model development. […] The two other compartments were considered peripheral distribution compartments (V2 and V3). When IIVs in V2 and V3 were included in the model, it was recognized that the individual IIVs on V2 and V3 were highly correlated, and, in addition, the typical estimates of V2 and V3 were very similar. Therefore, a model with a shared IIV term and with a single shared parameter for V2 and V3 [peripheral volume (V23)] was tested. […] The estimation of a four-compartment model achieved a moderate improvement in the value of the objective function (VOF) (a decrease of 49 points). However, there was no discernible improvement in the goodness-of-fit model diagnostics, and the residual error was nearly identical. Therefore, the three-compartment structural model was considered to adequately describe the PK of rezafungin without overparameterization. The inclusion of IIV terms was tested on various PK parameters, including clearance (CL), central volume of distribution (V1), V23, intercompartmental clearance 1 (Q2), and intercompartmental clearance 2 (Q3). Interindividual variability terms on CL, V1, and V23 were sufficient to achieve good individual predictions. For the residual variability (RV), the constant coefficient of variation (CCV) and combined additive and proportional error models were tested.
The final PK model of rezafungin is a three-compartment model with first-order elimination, characterized by the parameters CL, V1, V23, Q2, and Q3. The variability model included IIV in V1, V23, and CL, their covariances, and a proportional RV model (Table 2). All fixed and random effect parameters, including those of the covariance terms, were estimated with reasonable precision (<39%RSE). The magnitudes of the IIV parameters were moderate for all parameters: 30.5 coefficient of variation expressed as a percent (%CV) for CL, 37.6%CV for V1, and 29.3%CV for V23. Eta shrinkage was low for all parameters (<11%), and the residual error was also low (9.74%CV).
Data were obtained from five Phase 1 studies (CD101.IV.1.01, CD101.IV.1.02, CD101.IV.1.06, CD101.IV.1.07, and CD101.IV.1.15), a Phase 2 study (CD101.IV.2.03; STRIVE), and a Phase 3 study (CD101.IV.3.05; ReSTORE) (Table S1). All study participants met the inclusion and exclusion criteria for the study in which they were enrolled. All clinical studies were conducted in compliance with International Council for Harmonisation guidelines on Good Clinical Practice.
Dosing regimens for rezafungin are described in Table S1. Data from both single- and multiple-dose studies, with doses ranging from 50 to 1,400 mg, were included in this analysis. All doses of rezafungin were administered via IV infusion.
Dense PK samples were collected in the Phase 1 studies, and a mixture of dense and sparse PK samples were collected in the Phase 2 and Phase 3 studies. […]

The subject of data set [3] is Candida parapsilosis. Particulars: ref Lepak et al., 2018 (e02154-17), cited from earlier work. The method, then: TABLE 4 Nonclinical pharmacokinetic/pharmacodynamic targets, by species^a^,^b^,^c | column: Method; Stasis / fAUC0–168h/MIC median || FIG 4 Probability of pharmacokinetic/pharmacodynamic target attainment for 400 mg rezafungin against Candida species using CLSI methodology. f, free. […] This has been observed for other echinocandins and appears to be limited to nonclinical testing as C. parapsilosis responds well clinically to echinocandin therapy despite the intrinsically elevated MICs of this species ([29]). It is believed that the C. parapsilosis strains utilized in the model (more than 80% of which were not suitable) are highly fit or virulent and therefore may result in elevated targets ([30]).

The mark [4] stands for this setting: final population PK model, population mean.
The mark [5] stands for this setting: final population PK model, population mean, covariate effect.

*1 amine or outer side, *2 acyl side, *3 side chain or, on linkers, in order; H or OH if unused. Where a SMILES comes first, the peptide text is derived from it. Bridges are numbered along the chain shown (N, C = ends). [ ]: non-standard residue; d: D form. The star is where a group is joined. Orn(4R-OH,5R-OCH2CH2NMe3+) = C[N+](C)(C)CCO[C@@H](N[*:3])[C@H](O)C[C@H](N[*:1])C(=O)[*:2]; pTerphenylCO(4''-OnC5H11) = CCCCCOc1ccc(-c2ccc(-c3ccc(C(=O)*)cc3)cc2)cc1; hTyr(3S-OH,4S-OH) = N[C@H](C(=O)O)[C@H](O)[C@@H](O)c1ccc(O)cc1; Pro(3S-OH,4S-Me) = C[C@H]1CN[C@H](C(=O)O)[C@H]1O; Hyp = O=C(O)[C@@H]1C[C@@H](O)CN1

For `CCCCCOc1ccc(-c2ccc(-c3ccc(C(=O)N[C@H]4C[C@@H](O)[C@@H](OCC[N+](C)(C)C)NC(=O)[C@@H]5[C@@H](O)[C@@H](C)CN5C(=O)[C@H]([C@@H](C)O)NC(=O)[C@H]([C@H](O)[C@@H](O)c5ccc(O)cc5)NC(=O)[C@@H]5C[C@@H](O)CN5C(=O)[C@H]([C@@H](C)O)NC4=O)cc3)cc2)cc1` [rezafungin] ({pTerphenylCO(4''-OnC5H11)}-[Orn(4R-OH,5R-OCH2CH2NMe3+)]T[Hyp][hTyr(3S-OH,4S-OH)]T[Pro(3S-OH,4S-Me)]; lactam 1-C), the Protein binding in data set [1] (human (presumed healthy) plasma) was 97.4%. Also, in data set [1] (plasma from healthy subjects, used to calculate fAUC0–168h), the free fraction is given as 2.6%. The CL in data set [2] (BSA 1.3 m^2, based on the final model estimates) is 0.235 L/h. Moreover, in data set [2] (BSA 2.6 m^2, based on the final model estimates), the CL is listed as 0.433 L/h. Also, the “lower CL in healthy subjects than infected subjects or those with hepatic impairment” value in data set [2] (final model estimates) is 27.6%. Besides, in data set [2] (setting [4]), the “Q2, Distribution clearance 1” value was found to be 0.236 L/h and the “Q3, Distribution clearance 2” value worked out at 12.4 L/h. Further, the “V23, Peripheral volume 1 and 2” value in data set [2] (final population PK model, population mean, BSA 1.9 m^2, ALB 3.2 g/dL) was 19.1 L. The “CL, Central clearance” value in data set [2] (final population PK model, population mean, IV infusion, 277 subjects, typical value for disease state, BSA 1.9 m^2) was 0.328 L/h. Also, in data set [2] (setting [5]), the “Exponent of (BSA/1.9) for V1” value is 1.56 and the “Exponent of (BSA/1.9) for V23” value amounted to 1.17. Besides, the “V1, Central volume” value in data set [2] (final population PK model, population mean, typical value for disease state, BSA 1.9 m^2) turned out to be 17.7 L. The “Stasis, fAUC0–168h/MIC median” value in data set [3] (CLSI MIC, net fungal stasis, neutropenic mouse) is 18.2. The maximum effect entry in data set [3] (nonclinical model) is on record as “only achieved stasis”.

Values taken from paper PMC10720538, “Population pharmacokinetic modeling and target attainment analyses of rezafungin for the treatment of candidemia and invasive candidiasis” (Antimicrobial Agents and Chemotherapy, 2023).
